# Reference: patent publication US8080367B2, “Regulation of cell survival by HSP90 and IP6K2” (The Johns Hopkins University, priority 2006, dated 2011)
# “Also recorded” adds a separate entry of the source.
# Key:
# [1] = tested on: HeLa cells; experiment: Cell death (% apoptotic nuclei) in IP6K2 siRNA depleted cells; format: cell-based; conditions: IP6K2 RNA interference (~40% less IP7 formation)
# Source text: (§1) FIG. 5A. […] FIG. 5B. […] FIG. 5C. […] FIG. 5D. […] FIG. 5E.
# [2] = tested on: IP6K2; experiment: Intracellular localization of IP6K2 (nuclei isolation, fluorescence microscopy); format: cell-based; conditions: for effect on nuclear vs cytosolic myc-IP6K2, nuclei isolation and densitometry: 60 μg total protein per lane, anti-myc blot; for effect on intracellular localization of IP6K2: drug-treated cells
# Description: FIG. 4A-4F. HSP90 regulates intracellular localization of IP6K2. FIG. 4A. […] Following drug treatment, nuclei were isolated from the rest of the cytoplasm. In each lane, 60 μg of total protein was loaded and the localization of IP6K2 assessed with an anti-myc antibody. Bands were analyzed by densitometry and changes in localization were calculated with the basal distribution of IP6K2 as a control. […] FIG. 4B. GFP-IP6K2 stably expressed in HEK 293 cells is distributed to a similar extent in cytosol and nucleus. Cells were stained with Hoechst stain for nucleus. FIG. 4C. Overexpression of pDSRed-HSP90 in HEK293 stably expressing GFP-IP6K2 retains IP6K2 completely in the cytosol. HSP90 also co-localizes well with IP6K2 as indicated by the yellow color of the merged picture. FIG. 4D. […] FIG. 4E. […] Cells overexpressing HSP90 (arrow a) display co-localization of IP6K2-HSP90 in the cytosol, whereas in cells lacking overexpressed HSP90 (arrow b), IP6K2 is nuclear. FIG. 4F. Effects of HSP90 depletion on intracellular localization of IP6K2. In HeLa, cells transiently expressed GFP-IP6K2 occurs diffusely throughout cells. Depletion of HSP90 by RNAi (depletion is 100% as shown in FIG. 6), leads to nuclear accumulation of IP6K2.
# Isolation of nuclei: Nuclei were separated from other cytoplasmic components using commercial kits (See ‘Reagents’ section). Preparation was checked each time by running appropriate controls for nucleus (p84).
# Fluorescence microscopy: HeLa cells were transfected with pEGFP+IP6K1/IP6K2/IP6K3, either alone or with pDsRed HSP90α with or without drug or siRNA treatment, fixed with ice cold methanol, stained with Hoechst stain for nucleus and observed under an Ultraview1 confocal microscope.
# [3] = tested on: IP6K2; experiment: IP7 measurement in vivo (IP6K activity as IP7/IP6 ratio in [3H]inositol labeled cells); conditions: HeLa cells with or without overexpression of IP6K2
# [4] = tested on: HeLa cells; experiment: Cell death / survival (MTT assay) with IP6K2 overexpression; format: cell-based; conditions: HeLa cells transfected with IP6K2
# Source text: as §1
# [5] = target: T1, IP6K2-HSP90 binding (Homo sapiens, UniProt Q9UHH9); experiment: In vitro HSP90-IP6K2 binding assay with purified proteins; conditions: IP6K2 preincubated with increasing concentrations of IP6 15 min, then HSP90 1 h
# T1 construct: purified endogenous HSP90 (HeLa); made in house; host or cells: HSP90 purified from HeLa cells (endogenous); myc-IP6K2 immunoprecipitated from transfected HEK 293 cells
# T1 sequence (Q9UHH9 1-426): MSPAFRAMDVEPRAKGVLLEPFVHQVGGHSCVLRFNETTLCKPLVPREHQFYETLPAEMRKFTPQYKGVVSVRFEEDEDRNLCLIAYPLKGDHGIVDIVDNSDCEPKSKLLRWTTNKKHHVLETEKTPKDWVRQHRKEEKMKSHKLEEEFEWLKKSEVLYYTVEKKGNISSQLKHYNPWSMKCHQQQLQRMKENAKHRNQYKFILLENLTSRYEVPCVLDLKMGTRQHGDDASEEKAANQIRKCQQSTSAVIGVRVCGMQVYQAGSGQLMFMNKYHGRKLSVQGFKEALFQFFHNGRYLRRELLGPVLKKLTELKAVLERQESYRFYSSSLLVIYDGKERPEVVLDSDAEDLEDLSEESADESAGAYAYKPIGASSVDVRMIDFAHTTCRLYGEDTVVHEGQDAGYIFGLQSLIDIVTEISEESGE
# Source text: (§2) FIG. 3A, 3B, 3C. […] FIG. 3E.
# [6] = target: T2, IP6K2-HSP90 binding; experiment: as above; parameters: species or system human; conditions: purified proteins; 250 nM HSP90 from HeLa preincubated with drug 30 min 37° C., then myc-IP6K2 beads; western blot; read-out: concentration reducing IP6K2-HSP90 binding by 50%
# T2 construct: other: purified proteins; 250 nM HSP90 from HeLa preincubated with d
# Source text: as §2
# [7] = target: IP6K2-HSP90 binding (Homo sapiens, UniProt P07900); experiment: Co-immunoprecipitation of HSP90 with IP6K2 from drug-treated cells; format: cell-based; conditions: for effect on IP6K2-HSP90 binding, coimmunoprecipitation: HEK 293 cells; for effect on binding of HSP90 with IP6K2, coimmunoprecipitation: myc-IP6K2-transfected HeLa cells, CP 30 overnight, NB 500 μM overnight, ST 1 μM 6 h, AAG 1 μM overnight
# Description: as §2
# Cell culture: HeLa and HEK 293 were cultured as described (18). […] HEK293 and HeLa cells were transiently transfected using polyfect transfection reagent (Qiagen). siRNAs were transfected with ‘Hiperfect’ transfection reagent (Qiagen).
# Co-immunoprecipitation: Cells/mouse brain were homogenised in lysis buffer (20 mM Tris pH 7.4, 150 mM NaCl, 0.5% NP-40, and protease inhibitor cocktails). Equal amounts of protein were immunoprecipitated at 4° C. overnight using the protein A/G agarose beads in the presence of antibody. After immunoprecipitation, beads were washed four times with lysis buffer. Co-immunoprecipitates were resolved by SDS-PAGE and analysed by western blotting.
# [8] = target: HSP90 (Homo sapiens, UniProt P07900); experiment: HSP90 binding to ATP-agarose beads; conditions: increasing concentrations, FIG. 7
# Source text: Beads were washed with wash buffer and run on 4-12% SDS-PAGE. Bound HSP90 was detected by western blotting with anti-HSP90 monoclonal antibody.
# [9] = tested on: HeLa cells; conditions: reference 10; cited from earlier work
# [10] = tested on: IP6K2-HSP90 binding; experiment: In vitro HSP90-IP6K2 binding assay with purified proteins; parameters: species or system human; conditions: data not shown
# Source text: as §2
Compound,change of drug-elicited cell death in IP6K2 depleted cells [1],"effect on nuclear vs cytosolic myc-IP6K2, nuclei isolation and densitometry [2]",effect on intracellular localization of IP6K2 [2],effect on IP6K2 activity / IP7 formation in cells [3],change of drug's apoptotic action on IP6K2 overexpression [4],IC50 [6] [µM],"effect on IP6K2-HSP90 binding, coimmunoprecipitation [7]","effect on binding of HSP90 with IP6K2, coimmunoprecipitation [7]",other results
"C=CCNC1=C2C[C@@H](C)C[C@H](OC)[C@H](O)[C@@H](C)/C=C(\C)[C@H](OC(N)=O)[C@@H](OC)/C=C\C=C(/C)C(=O)NC(=CC1=O)C2=O [AAG, 17-aminoallyl geldanamycin]",unaffected by IP6K2 depletion,elicits the opposite effect,increases IP6K2 localization in the cytosol,diminishes IP6K activity; also recorded: less IP7 formation,unaffected by IP6K2 overexpression,–,–,–,–
O=P(O)(O)O[C@H]1[C@H](OP(=O)(O)O)[C@@H](OP(=O)(O)O)[C@H](OP(=O)(O)O)[C@@H](OP(=O)(O)O)[C@H]1OP(=O)(O)O [IP6],–,–,–,–,–,–,–,–,effect of IP6 on in vitro binding of HSP90 to myc IP6K2 [5]: abolished
N.N.[Cl][Pt][Cl] [cisplatin],reduced by almost half,–,enhance nuclear levels of IP6K2,augmented IP6K2 activity,markedly enhanced by IP6K2 overexpression,1 to 5,diminish IP6K2-HSP90 binding,disrupt the binding of HSP90 with IP6K2,effect on IP6K2 activity / IP7 formation in cells ([3]; listed as CP): increase IP6K activity
CO[C@@H]1[C@@H](OC(N)=O)[C@@H](O)[C@H](Oc2ccc3c(O)c(NC(=O)c4ccc(O)c(CC=C(C)C)c4)c(=O)oc3c2C)OC1(C)C [novobiocin],reduced by almost half,increases nuclear and decreases cytosolic IP6K2,enhance nuclear levels of IP6K2,augmented IP6K2 activity,markedly enhanced by IP6K2 overexpression,~200,–,–,effect on IP6K2 activity / IP7 formation in cells ([3]; listed as NB): increase IP6K activity
CN[C@@H]1C[C@H]2O[C@@](C)([C@@H]1OC)n1c3ccccc3c3c4c(c5c6ccccc6n2c5c31)C(=O)NC4 [staurosporine],–,–,elicits mitochondrial translocation of IP6K2,augmented IP6K2 activity,markedly enhanced by IP6K2 overexpression,–,diminish IP6K2-HSP90 binding,disrupt the binding of HSP90 with IP6K2,"effect on HSP90 binding to ATP-agarose beads [8]: inhibits binding of HSP90 to ATP-agarose beads in a concentration dependent manner; effect on IP6K2 activity / IP7 formation in cells ([3]; listed as ST): increase IP6K activity; change of drug's apoptotic effects on IP6K2 depletion, previously reported [9]: IP6K2 depletion prevents the apoptotic effects"
p23: a co-chaperone which binds HSP90 with high affinity,–,–,–,–,–,–,–,–,"effect of p23 on in vitro IP6K2-HSP90 binding [10]: only influences in vitro IP6K2-HSP90 binding at a high molar ratio (1:20); effect of p23 on IP6K2-HSP90 coprecipitation ([7]; HeLa cells, data not shown): does not affect their coprecipitation in HeLa cells"
